Converted amounts (≈) assume the structure as drawn. “Also recorded” adds a separate entry of the source.
Key:
[1] = test system: Proteus vulgaris 1012; assay: Inhibition zone, agar plate; assay type: cell-based
[2] = test system: Pseudomonas aeruginosa 979; assay: Inhibition zone, agar plate; assay type: cell-based; conditions: 15λ, read-out: Inhibition Zone Diameter
[3] = test system: Staphylococcus aureus 108 (6538P); assay: Inhibition zone, agar plate; assay type: cell-based; conditions: 15λ, read-out: Inhibition Zone Diameter
[4] = test system: Sarcina lutea 1101 (934); assay: Inhibition zone, agar plate; assay type: cell-based; conditions: Micrococcus luteus, 15λ, read-out: Inhibition Zone Diameter
[5] = test system: Salmonella gallinarum 1287; assay: Inhibition zone, agar plate; assay type: cell-based; conditions: Salmonella enterica, 15λ, read-out: Inhibition Zone Diameter
[6] = test system: Vibrio percolans 1272 (8461); assay: Inhibition zone, agar plate; assay type: cell-based; conditions: Comamonas terrigena, 15λ, read-out: Inhibition Zone Diameter
[7] = test system: Proteus vulgaris 838 (21100); assay: Inhibition zone, agar plate; assay type: cell-based; conditions: 15λ, read-out: Inhibition Zone Diameter
[8] = test system: Escherichia coli 1418; assay: Inhibition zone, agar plate; assay type: cell-based; conditions: 15λ, read-out: Inhibition Zone Diameter
[9] = test system: Pseudomonas stutzeri 1231 (11607); assay: Inhibition zone, agar plate; assay type: cell-based; conditions: Stutzerimonas stutzeri, 15λ, read-out: Inhibition Zone Diameter
[10] = test system: Klebsiella pneumoniae 1264; assay: Inhibition zone, agar plate; assay type: cell-based; conditions: 15λ, read-out: Inhibition Zone Diameter
[11] = test system: Corynebacterium pseudodiph. 261 (9742); assay: Inhibition zone, agar plate; assay type: cell-based; conditions: read-out: Inhibition Zone Diameter
[12] = test system: Streptococcus faecium 2820; assay: Inhibition zone, agar plate; assay type: cell-based; conditions: Enterococcus faecium, 15λ, read-out: Inhibition Zone Diameter
[13] = test system: Proteus vulgaris 2112 (episome); assay: Inhibition zone, agar plate; assay type: cell-based; conditions: read-out: Inhibition Zone Diameter
[14] = test system: Proteus mirabilis 3126; assay: Inhibition zone, agar plate; assay type: cell-based
[15] = test system: Actinomyces naeslundii 4053; assay: Anaerobic agar dilution, Wilkens-Chalgren agar; assay type: cell-based; conditions: Actinomyces naeslundii, 4053, 48 h
[16] = test system: C. perfringens 3508; assay: microbe, parasite or virus in culture; assay type: cell-based; conditions: Clostridium perfringens, 3508, 48 h
[17] = test system: C. perfringens 3509; assay: microbe, parasite or virus in culture; assay type: cell-based; conditions: Clostridium perfringens, 3509, 48 h
[18] = test system: C. perfringens 3511; assay: microbe, parasite or virus in culture; assay type: cell-based; conditions: Clostridium perfringens, 3511, 48 h
[19] = test system: C. ramosum 4272; assay: Anaerobic agar dilution, Wilkens-Chalgren agar; assay type: cell-based; conditions: Thomasclavelia ramosa, 4272, 48 h
[20] = test system: C. difficile Fox^r 4380; assay: Anaerobic agar dilution, Wilkens-Chalgren agar; assay type: cell-based; conditions: Clostridioides difficile, 48 h
[21] = test system: Bifidobacterium dentium Fox^r 4427; assay: Anaerobic agar dilution, Wilkens-Chalgren agar; assay type: cell-based; conditions: 48 h
[22] = test system: B. fragilis Clind^r, Fox^r, Tet^r 4360; assay: Anaerobic agar dilution, Wilkens-Chalgren agar; assay type: cell-based; conditions: Bacteroides fragilis, 48 h
[23] = test system: B. distasonis Pen^r, Fox^r, Clind^r 4361; assay: Anaerobic agar dilution, Wilkens-Chalgren agar; assay type: cell-based; conditions: Parabacteroides distasonis, 48 h
[24] = test system: B. thetalotamicron Clind^r 4362; assay: Anaerobic agar dilution, Wilkens-Chalgren agar; assay type: cell-based; conditions: 48 h
[25] = test system: B. asaccharolyticus 4271; assay: Anaerobic agar dilution, Wilkens-Chalgren agar; assay type: cell-based; conditions: Porphyromonas asaccharolytica, 4271, 48 h
[26] = test system: Veillonella alcalescens 1952; assay: Anaerobic agar dilution, Wilkens-Chalgren agar; assay type: cell-based; conditions: Veillonella parvula, 1952, 48 h
[27] = test system: S. aureus Gm^r Meth^r 4310; assay: Agar dilution, trypticase soy agar; conditions: Staphylococcus aureus, 20 h
[28] = test system: E. coli 2891; assay: Agar dilution, trypticase soy agar; conditions: Escherichia coli, 2891, 20 h
[29] = test system: Sal. typhimurium 3860; assay: Agar dilution, trypticase soy agar; conditions: Salmonella enterica, 20 h
[30] = test system: K. pneumoniae K1+ 4354; assay: Agar dilution, trypticase soy agar; conditions: Klebsiella pneumoniae, 20 h
[31] = test system: K. pneumoniae 4005; assay: Agar dilution, trypticase soy agar; conditions: Klebsiella pneumoniae, 4005, 20 h
[32] = test system: Prot. vulgaris 2829; assay: Agar dilution, trypticase soy agar; conditions: Proteus vulgaris, 2829, 20 h
[33] = test system: E. coli 2891; assay: Agar dilution, antagonist-free medium; conditions: Escherichia coli, 2891, 20 h
[34] = test system: Sal. typhimurium 3860; assay: Agar dilution, antagonist-free medium; conditions: Salmonella enterica, 20 h
[35] = test system: Pasteurella multocida (4678); assay: Protection and survival of infected mice; conditions: intraperitoneal
[36] = test system: Pasteurella; assay: Combined therapy with erythromycin in infected mice; conditions: L-654,040 combined with erythromycin, Pasteurella infection

## C[C@H](CNC(=O)[C@H]1N=C(c2cccc(O)c2O)O[C@@H]1C)C(=O)N[C@@H]1CCCN(O)C1=O [L-654,040, 2-(2,3-dihydroxyphenyl)-4,5-dihydro-N-[3-[(1-hydroxy-2-oxo-3(R)-piperidinyl)-amino]-2(R)-methyl-3-oxopropyl]-5R-methyl-4S-oxazolecarboxamide]
[1]; Proteus vulgaris, 1012, read-out: Inhibition Zone Diameter
  zone of inhibition at 500 µg/mL: 24 mm
[1]; Proteus vulgaris, 1012, 2 mg/ml in distilled H2O, 15λ, read-out: Inhibition Zone Diameter
  zone of inhibition at 2000 µg/mL: 34 mm
[2]; 0.5 mg/ml in distilled H2O
  zone of inhibition at 500 µg/mL: 0 mm
[2]; 2 mg/ml in distilled H2O
  zone of inhibition at 2000 µg/mL: 0 mm
[3]; 0.5 mg/ml in distilled H2O
  zone of inhibition at 500 µg/mL: 0 mm
[3]; 2 mg/ml in distilled H2O
  zone of inhibition at 2000 µg/mL: 18 mm
[4]; 0.5 mg/ml in distilled H2O
  zone of inhibition at 500 µg/mL: 12 mm
[4]; 2 mg/ml in distilled H2O
  zone of inhibition at 2000 µg/mL: 17 mm
[5]; 0.5 mg/ml in distilled H2O
  zone of inhibition at 500 µg/mL: 0 mm
[5]; 2 mg/ml in distilled H2O
  zone of inhibition at 2000 µg/mL: 0 mm
[6]; 0.5 mg/ml in distilled H2O
  zone of inhibition at 500 µg/mL: 18 mm
[6]; 2 mg/ml in distilled H2O
  zone of inhibition at 2000 µg/mL: 25 mm
[7]; 0.5 mg/ml in distilled H2O
  zone of inhibition at 500 µg/mL: 18 mm
[7]; 2 mg/ml in distilled H2O
  zone of inhibition at 2000 µg/mL: 31 mm
[8]; 0.5 mg/ml in distilled H2O
  zone of inhibition at 500 µg/mL: 0 mm
[8]; 2 mg/ml in distilled H2O
  zone of inhibition at 2000 µg/mL: 13 mm
[9]; 0.5 mg/ml in distilled H2O
  zone of inhibition at 500 µg/mL: 12 mm
[9]; 2 mg/ml in distilled H2O
  zone of inhibition at 2000 µg/mL: 13 mm
[10]; 0.5 mg/ml in distilled H2O
  zone of inhibition at 500 µg/mL: 0 mm
[10]; 2 mg/ml in distilled H2O
  zone of inhibition at 2000 µg/mL: 0 mm
[11]; 2 mg/ml in distilled H2O, 15λ
  zone of inhibition at 2000 µg/mL: 33 mm
[11]
  zone of inhibition at 500 µg/mL: 28 mm
[12]; 0.5 mg/ml in distilled H2O
  zone of inhibition at 500 µg/mL: 0 mm
[12]; 2 mg/ml in distilled H2O
  zone of inhibition at 2000 µg/mL: 0 mm
[13]
  zone of inhibition at 500 µg/mL: 16 mm
  zone of inhibition at 2000 µg/mL: 28 mm
[14]; Proteus mirabilis, 3126, read-out: Inhibition Zone Diameter
  zone of inhibition at 500 µg/mL: 24 mm
[14]; Proteus mirabilis, 3126, 2 mg/ml in distilled H2O, 15λ, read-out: Inhibition Zone Diameter
  zone of inhibition at 2000 µg/mL: 25 mm
[15]
  MIC: 128 µg/mL (≈ 295 µM)
[16]
  MIC: 64 µg/mL (≈ 147 µM)
[17]
  MIC: 64 µg/mL (≈ 147 µM)
[18]
  MIC: 64 µg/mL (≈ 147 µM)
[19]
  MIC: 64 µg/mL (≈ 147 µM)
[20]
  MIC: 128 µg/mL (≈ 295 µM)
[21]
  MIC: > 128 µg/mL
[22]
  MIC: > 128 µg/mL
[23]
  MIC: > 128 µg/mL
[24]
  MIC: > 128 µg/mL
[25]
  MIC: > 128 µg/mL
[26]
  MIC: > 128 µg/mL
[27]
  MIC: 128 µg/mL (≈ 295 µM)
[28]
  MIC: > 128 µg/mL
[29]
  MIC: > 128 µg/mL
[30]
  MIC: > 128 µg/mL
[31]
  MIC: > 128 µg/mL
[32]
  MIC: > 128 µg/mL
[33]
  MIC: > 256 µg/mL
[34]
  MIC: > 256 µg/mL
[35]
  protection against infection: did not protect
[35]; two Pasteurella tests
  statistical significance of prolonged survival: statistically significant at one level in two Pasteurella tests
[35]; 160 mg/kg x 2
  survival time: prolongation of survival time was observed; also recorded: did prolong the survival time; also recorded: increases survival time
[36]
  efficacy of combined therapy versus erythromycin alone: slightly more effective than erythromycin alone but not to a degree considered to be synergistic

Source: US4956294A, “Culture of Streptoverticillium synroense for producing an antibacterial” (Merck & Co., Inc., priority 1989, dated 1990)
